In patent US12216122B2, “Compositions and methods relating to detection, inhibition, and imaging of indoleamine 2,3-dioxygenase 1 (IDO1)” (Regeneron Pharmaceuticals, Inc., priority 2019, dated 2025):
Like-named read-outs stand apart in the source and are kept apart here. Numbered stars: 1 amine (or outer) side, 2 acyl side, 3 side chain; on linkers, the order of the positions; unused ones are H or OH. Bridge positions count the residues as written; N and C are the ends. Square brackets hold non-standard residues; d marks the D form. Triazole bridges read from a SMILES are 1,4-linked. Peptide text beside a SMILES is read from it. * marks the point of attachment. ξ: configuration not given here. NH(CH2CH2O)5CH2CO = O=C(COCCOCCOCCOCCOCCN[*:1])[*:2]; Biotinyl(4ξ) = O=C1N[C@H]2CSC(CCCCC(=O)*)[C@H]2N1; NMeLys(N3) = CN[C@@H](CCCCN=[N+]=[N-])C(=O)O; X1 = O=C(CSc1nonc1/C(=N/O)Nc1ccc(F)c(Br)c1)*; Trp(1-Me) = Cn1cc(C[C@H](N)C(=O)O)c2ccccc21; X5 = O=C1N[C@@H]2CSC(CCCCC(=O)*)[C@@H]2N1; PEG8 = NCCOCCOCCOCCOCCOCCOCCOCCOCCC(=O)O; Lys(N3) = [N-]=[N+]=NCCCC[C@H](N)C(=O)O; Phe(4-F) = N[C@@H](Cc1ccc(F)cc1)C(=O)O; PEG6 = NCCOCCOCCOCCOCCOCCOCCC(=O)O; dNMeV = CN[C@@H](C(=O)O)C(C)C; PEG4 = NCCOCCOCCOCCOCCC(=O)O; AEEEA = NCCOCCOCCOCC(=O)O; Pra = C#CC[C@H](N)C(=O)O

Columns and labels:
[1] = molecular target: T1, recombinant human IDO1 (Homo sapiens, UniProt P14902); experiment: IDO1 Fluorogenic Inhibitor Screening Assay (enzyme inhibition); assay type: biochemical
T1 construct: purchased BPS Biosciences 72037
Protocol: The IDO1 Fluorogenic Inhibitor Screening Assay Kit (72037, BPS Biosciences) was used to measure the enzyme inhibition of human IDO1 in the presence of macrocyclic peptide ligands. IDO1 catalyzes the conversion of the essential amino acid L-tryptophan (L-Trp) to N-formylkynurenine (NFK). In the assay, the test inhibitor and enzyme were added to a sample containing L-Trp substrate. After incubation for 1 h at room temperature, 20 μL Fluorescence Solution was added and incubated at 37° C. for 4 h to produce a fluorescent product. Activity was measured by reading sample fluorescence at λ=510 nm following excitation of the reaction product at λ=400 nm.

[2] = molecular target: T2, His-tagged IDO1 human recombinant protein (Homo sapiens, UniProt P14902); experiment: IDO1 ELISA (Affinity Assay): sandwich ELISA, biotinylated ligand immobilized on NEUTRAVIDIN plate; assay type: binding
T2 construct: purchased BPS Biosciences 71182
Protocol: Protocol: A black 96-well NEUTRAVIDIN® Coated High Binding Capacity plate (15510, Pierce) was coated with 2 μM biotinylated macrocyclic peptide ligand in TBS (25 mM Tris-HCl, 150 mM NaCl, pH 7.6) for 2 h at room temperature. The plate was aspirated and then washed with Wash Buffer (0.05% (v/v) TWEEN® 20 in PBS, 6×). His-tagged IDO1 human recombinant protein (71182, BPS Biosciences) was serially diluted in Wash Buffer (from 200 to 0 nM) and incubated in the designated microwells for 1 h at room temperature. Microwells were aspirated and subsequently washed with Wash Buffer (11×). To detect the bound IDO1 protein, Alkaline Phosphatase (AP)-conjugated Anti-6×HIS TAG® antibody [HIS-1] (ab49746, Abcam) was prepared at 1:10,000 dilution and added to the microwells for 1 h at room temperature. The plate was aspirated and washed with Wash Buffer (5×). ATTOPHOS® AP Fluorescent Substrate System (S1000, Promega) was employed to develop the microwells. Using an excitation wavelength of 430 nm, fluorescent emission at 535 nm was recorded by Beckman Coulter DTX880 photometer. Titration curves were fit using a four-parameter regression curve fitting program to determine EC50 values.
For these assays, a dilution series of His-tagged IDO1 human recombinant protein was captured using the macrocyclic peptide ligands immobilized on a NEUTRAVIDIN®-coated plate. […] The sequences of the peptide ligands are listed in Table 1, where D-amino acids are denoted in lowercase, Me-Trp=1-methyl-L-tryptophan, and F-Phe=4-fluoro-L-phenylalanine. Chemical structures are shown below Table 1.
The D-alanine substituted, biotin-PEG3-modified macrocycles were tested in the IDO1 ELISA (Affinity assay). For these assays, a dilution series of His-tagged IDO1 human recombinant protein was captured using macrocycles immobilized on a NEUTRAVIDIN®-coated plate.

[3] = N-methylated heterobiligands, PEG6 linker, read-out: IC50
[4] = Table 15, read-out: Inhibition Recombinant IDO1 IC50

T1 sequence (P14902 whole entry): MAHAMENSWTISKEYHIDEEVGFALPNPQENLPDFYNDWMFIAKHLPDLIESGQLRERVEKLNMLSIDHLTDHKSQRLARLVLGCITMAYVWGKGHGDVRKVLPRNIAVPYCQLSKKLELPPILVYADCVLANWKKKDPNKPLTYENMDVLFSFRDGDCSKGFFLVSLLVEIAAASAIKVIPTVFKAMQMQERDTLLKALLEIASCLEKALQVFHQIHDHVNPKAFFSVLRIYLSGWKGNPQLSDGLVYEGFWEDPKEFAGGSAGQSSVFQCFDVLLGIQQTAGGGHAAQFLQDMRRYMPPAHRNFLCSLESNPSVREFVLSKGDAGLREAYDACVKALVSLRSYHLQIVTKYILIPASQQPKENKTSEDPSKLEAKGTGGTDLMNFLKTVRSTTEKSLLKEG
T2 sequence (P14902 whole entry): as above

SMILES: CC(C)[C@H]1NC(=O)[C@@H](Cc2ccc(O)cc2)NC(=O)[C@@H](Cc2c[nH]c3ccccc23)NC(=O)[C@@H](NC(=O)CNC(=O)CNC(=O)CSc2nonc2/C(=N/O)Nc2ccc(F)c(Br)c2)Cc2cn(nn2)CCCC[C@@H](C(N)=O)NC(=O)[C@@H](Cc2ccc(O)cc2)NC(=O)[C@@H](C)NC1=O [Deprotected-Inh-Gly2-wyvay] (X1-GG[Pra][dW][dY][dV][dA][dY][Lys(N3)]-NH2; triazole 3-9)
- IDO1 inhibition potency relative to the small molecule (Inh) alone, in words [1]: less active than the small molecule alone

SMILES: N=C(N)NCCC[C@H]1NC(=O)[C@@H](Cc2ccc(O)cc2)NC(=O)[C@@H](Cc2c[nH]c3ccccc23)NC(=O)[C@@H](NC(=O)CCOCCOCCOCCOCCNC(=O)CSc2nonc2/C(=N/O)Nc2ccc(F)c(Br)c2)Cc2cn(nn2)CCCC[C@@H](C(N)=O)NC(=O)[C@@H](Cc2ccc(O)cc2)NC1=O [Inh-PEG4-wyry] ({X1-PEG4}-[Pra][dW][dY][dR][dY][Lys(N3)]-NH2; triazole 1-6)
- IDO1 inhibition potency relative to the small molecule (Inh) alone, in words [1]: equal in potency

SMILES: CC(C)[C@H]1NC(=O)[C@@H](Cc2ccc(O)cc2)NC(=O)[C@@H](Cc2c[nH]c3ccccc23)NC(=O)[C@@H](NC(=O)COCCOCCOCCOCCOCCNC(=O)CSc2nonc2/C(=N/O)Nc2ccc(F)c(Br)c2)Cc2cn(nn2)CCCC[C@@H](C(N)=O)NC(=O)[C@@H](Cc2ccc(O)cc2)NC(=O)[C@@H](C)NC1=O [Inh-PEG5-wyvay] (X1-[NH(CH2CH2O)5CH2CO][Pra][dW][dY][dV][dA][dY][Lys(N3)]-NH2; triazole 2-8)
- IDO1 inhibition potency relative to the small molecule (Inh) alone, in words [1]: less active than the small molecule alone

SMILES: CC(C)[C@@H]1C(=O)N[C@H](C)C(=O)N[C@H](Cc2ccc(O)cc2)C(=O)N[C@H](C(N)=O)CCCCn2cc(nn2)C[C@H](NC(=O)CCOCCOCCOCCOCCOCCOCCNC(=O)CSc2nonc2/C(=N/O)Nc2ccc(F)c(Br)c2)C(=O)N[C@H](Cc2c[nH]c3ccccc23)C(=O)N[C@H](Cc2ccc(O)cc2)C(=O)N1C [Inh-PEG6-wy(N-Me-v)ay] ({X1-PEG6}-[Pra][dW][dY][dNMeV][dA][dY][Lys(N3)]-NH2; triazole 1-7)
- IC50 [1, 3]: 1.46 µM
- IC50 [1, 4]: 1.46 µM

SMILES: CC(C)[C@H]1NC(=O)[C@@H](Cc2ccc(O)cc2)NC(=O)[C@@H](Cc2c[nH]c3ccccc23)NC(=O)[C@@H](NC(=O)CCOCCOCCOCCOCCOCCOCCNC(=O)CSc2nonc2/C(=N/O)Nc2ccc(F)c(Br)c2)Cc2cn(nn2)CCCC[C@@H](C(N)=O)N(C)C(=O)[C@@H](Cc2ccc(O)cc2)NC(=O)[C@@H](C)NC1=O [Inh-PEG6-wyvay(N-Me)] ({X1-PEG6}-[Pra][dW][dY][dV][dA][dY][NMeLys(N3)]-NH2; triazole 1-7)
- IC50 [1, 3]: 0.622 µM
- IC50 [1, 4]: 0.622 µM

SMILES: N=C(N)NCCC[C@H]1NC(=O)[C@@H](Cc2ccc(O)cc2)NC(=O)[C@@H](Cc2c[nH]c3ccccc23)NC(=O)[C@@H](NC(=O)CCOCCOCCOCCOCCOCCOCCOCCOCCNC(=O)CSc2nonc2/C(=N/O)Nc2ccc(F)c(Br)c2)Cc2cn(nn2)CCCC[C@@H](C(N)=O)NC(=O)[C@@H](Cc2ccc(O)cc2)NC1=O [Inh-PEG8-wyry] ({X1-PEG8}-[Pra][dW][dY][dR][dY][Lys(N3)]-NH2; triazole 1-6)
- IDO1 inhibition potency relative to the small molecule (Inh) alone, in words [1]: significantly less potent than Inh alone

SMILES: C[C@H]1NC(=O)[C@@H](Cc2ccccc2)NC(=O)[C@@H](CCCNC(=N)N)NC(=O)[C@@H](Cc2ccccc2)NC(=O)[C@@H](NC(=O)COCCOCCOCCNC(=O)CCCCC2SC[C@@H]3NC(=O)N[C@H]23)Cc2cn(nn2)CCCC[C@@H](C(N)=O)NC(=O)[C@@H](CO)NC1=O (stereo partly shown) [frfas, Biotin-PEG3-Cy(frfas)] ({Biotinyl(4ξ)-AEEEA}-[Pra][dF][dR][dF][dA][dS][Lys(N3)]-NH2; triazole 1-7)
- Binding to human IDO1 by ELISA, in words [2]: weakest binding to IDO1

SMILES: CC(C)C[C@H]1NC(=O)[C@@H](NC(=O)COCCOCCOCCNC(=O)CCCCC2SC[C@H]3NC(=O)N[C@@H]23)Cc2cn(nn2)CCCC[C@@H](C(N)=O)NC(=O)[C@H](Cc2ccc(F)cc2)NC(=O)[C@H](Cc2cn(C)c3ccccc23)NC(=O)[C@@H](Cc2ccccc2)NC1=O (stereo partly drawn) [lf(Me-Trp)(F-Phe), Biotin-PEG3-Cy(lf(Me-Trp)(F-Phe))] ({X5-AEEEA}-[Pra][dL][dF][Trp(1-Me)][Phe(4-F)][Lys(N3)]-NH2; triazole 1-6)
- Binding to human IDO1 by ELISA, in words [2]: slight decrease in binding affinity
